Data taken from patent US6696454B2, “Inhibitors of spermidine synthase for the treatment of osteoarthritis and cartilage rehabilitation” (Quark Biotech, Inc., priority 2000, dated 2004).

How the values were obtained:
[1] = target: T1, spermidine synthase (Homo sapiens, UniProt P19623); details: variety of mammalian cells exposed to racemic AdoDATO; cited from earlier work
T1 construct: host or cells: a variety of mammalian cells (endogenous enzyme)
T1 sequence (P19623 1-302): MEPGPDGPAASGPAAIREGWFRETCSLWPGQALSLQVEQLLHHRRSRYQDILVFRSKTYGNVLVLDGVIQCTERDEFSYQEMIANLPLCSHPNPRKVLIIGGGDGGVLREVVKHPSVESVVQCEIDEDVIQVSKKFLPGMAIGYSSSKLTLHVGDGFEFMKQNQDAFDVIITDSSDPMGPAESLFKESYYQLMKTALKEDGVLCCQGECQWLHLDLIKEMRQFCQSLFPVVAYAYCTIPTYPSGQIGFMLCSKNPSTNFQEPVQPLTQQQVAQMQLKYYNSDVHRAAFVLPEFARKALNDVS

[2] = test system: cell proliferation; details: cell culture; cited from earlier work
[3] = test system: proteoglycan subunits bound to type II collagen; details: Sepharose 4B-collagen column loaded with proteoglycan subunits; cited from earlier work
[4] = test system: mouse alveolar macrophages; details: cited from earlier work; for fusion of macrophages: 1α,25(OH)2D3-induced; for enhanced synthesis of proteins induced by 1α,25(OH)2D3: 9 of the 14 induced proteins
[5] = target: T2, alkaline phosphatase (Homo sapiens, UniProt P05186); details: cited from earlier work
T2 construct: alkaline phosphatase produced from cartilage
T2 sequence (P05186 18-501): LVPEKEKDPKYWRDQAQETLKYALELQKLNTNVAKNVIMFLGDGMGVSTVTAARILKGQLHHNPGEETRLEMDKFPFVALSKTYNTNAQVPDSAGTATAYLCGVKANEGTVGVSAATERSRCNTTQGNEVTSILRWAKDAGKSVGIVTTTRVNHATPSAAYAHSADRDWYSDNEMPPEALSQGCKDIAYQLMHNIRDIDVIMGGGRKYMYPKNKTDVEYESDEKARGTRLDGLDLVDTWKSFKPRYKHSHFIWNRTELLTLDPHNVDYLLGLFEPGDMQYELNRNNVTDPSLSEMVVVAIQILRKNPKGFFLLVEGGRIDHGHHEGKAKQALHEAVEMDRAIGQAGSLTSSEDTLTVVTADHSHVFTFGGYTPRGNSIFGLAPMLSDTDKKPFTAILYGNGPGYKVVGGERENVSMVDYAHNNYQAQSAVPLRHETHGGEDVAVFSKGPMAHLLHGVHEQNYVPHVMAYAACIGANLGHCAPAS

[6] = test system: spermidine synthase; test: Gene expression profiling of treated HMSC by cDNA microarray hybridization; format: cell-based, human; details: HMSC treated with FGF-2
Procedure: (§1) A series of in vitro experiments using HMSC was conducted. The cells were exposed to a panel of treatments which cause either chondrogenic (e.g., IGF-1) or osteogenic and angiogenic (e.g., IL1 and FGF-2) responses. Two rounds of in vitro experiments were performed. Initially, a calibration experiment was carried out in order to determine the time/dose kinetics of the cellular response to the stimuli. Based on this study, a large-scale experiment was performed from which RNA was prepared and used in the course of the gene expression profiling experiments.
cDNA probes were synthesized from 1 μg of polyA RNA derived from every sample using reverse transcriptase (Superscript, Gibco-BRL) and 18-mer oligo-dT primer. Cy3-dCTP (Amersham) or Cy5-dCTP (Amersham) were incorporated during the RT reaction, to label the cDNA. Hybridization, subsequent scanning, and visualization were performed as previously described (Schena, M. et al. (1996) Proc Natl Acad Sci USA 93, 10614-10619). The quality control of hybridizations was performed according to applicant's methods.
Probe 2 in all hybridizations was an identical probe comprised of a pool of 0 time point RNA extractions (Table 4, Common control). This served as a common normalizing probe and allowed us to compare results from different hybridizations in formal statistical analysis. […]

[7] = test system: HMSC; test: Differentiation marker expression in HMSC treated with cytokines/growth factors; format: cell-based, human
Procedure: 1.1. HMSC—Normal adult articular cartilage progenitor cells were obtained from human cartilage. The cartilage was dissected and cultured in fresh DMEM medium supplemented with 10% FCS, L-glutamine and antibiotics. Two weeks after the cultivation of dissected cartilage, the remaining pieces were removed and the attached cells were used.
as §1
In order to validate the differentiation response of the HMSC to the various stimuli, cells exposed to different treatments (Table 1) were tested for the expression of markers specific for osteoblastic and chondroblastic lineages by immunohistochemistry and staining procedures. To optimize the response of HMSC to differentiation treatment, it was studied on cells grown at varying density (sparse and confluent).

[8] = test system: spermidine synthase; details: cited from earlier work
[9] = test system: spermidine synthase; details: neonatal rats, cited from earlier work
[10] = oral administration for 10 days or 4 months
[11] = rats, prolonged exposure for 10 days

For `NCCCCC[S+](CCN)CC1OC(n2cnc3c(N)ncnc32)C(O)C1O` (centres unmarked) [AdoDATO, S-adenosyl-1,8-diamino-3-thiooctane], the cellular spermidine content [1] is given as “drastic decrease”, the putrescine content [1] is given as “concomitant elevation” and the cell proliferation [2] is given as “significant decrease”.

In the case of `NCCCCNCCCN` [spermidine], the “effect on displacing proteoglycan subunits from collagen column” value (from here on “effect … from collagen column”) [3] is given as “strong capacity”, the “proteoglycan subunits removed from the column” value [3] is given as “about 90%” and the fusion of macrophages [4] is given as “restored”. For the same compound, the “enhanced synthesis of proteins induced by 1α,25(OH)2D3” value [4] was “restored” and the “activity of alkaline phosphatase produced from cartilage” value [5] was “increased”.

In the case of FGF-2: fibroblast growth factor, the “expression of spermidine synthase gene” value [6] is reported as “up-regulation”, the FGFR3 expression ([7]; confluent HMSC, 6 days) is reported as “increased” and the VEGF expression ([7]; confluent HMSC, 6 days) is reported as “increased”. For the same compound, the “chondrocyte maturation and cartilage matrix production (Alcian Blue staining)” value ([7]; confluent HMSC, 6 days) was “decreased” and the expression of osteocalcin ([7]; confluent HMSC, 6 days) was “increased”.

For `C[C@H]1CC[C@H](N)CC1` [4MCHA, trans-4-methylcyclohexylamine], the “spermidine in rat tissue” value [8, 10] is given as “specific and marked decrease”, the “spermine in rat tissue” value [8, 10] is given as “compensatory increase” and the reduction in spermidine ([8]; rats, prolonged exposure for 10 days, variety of tissues) is given as 70-80%. For the same compound, the effect on growth [8, 11] was “no obvious effect”, the spermine [8, 11] was “compensatory increase” and the total polyamine content [8, 11] was “remained constant”.

For `C1CCC(NC2CCCCC2)CC1` [DCHA], the “levels of all three polyamines on continued treatment” value ([9]; continued DCHA treatment) is listed as “returned to normal within two weeks”, the brain spermidine ([9]; daily administration) is listed as “dose-dependent depletion” and the putrescine and spermine ([9]; daily administration) is listed as “rise”.

For “IL-1β: the inflammatory cytokine, known to be overproduced in OA joints”, the FGFR3 expression ([7]; confluent HMSC, 6 days) was “increased”, the VEGF expression ([7]; confluent HMSC, 6 days) was “increased” and the “chondrocyte maturation and cartilage matrix production (Alcian Blue staining)” value ([7]; confluent HMSC, 6 days) was “decreased”. The expression of osteocalcin ([7]; confluent HMSC, 6 days) was “increased” and the “cytotoxicity to HMSC” value ([7]; high doses) was “cytotoxic”.

For `NCCCNCCCCNCCCN` [spermine], the “effect … from collagen column” value [3] is given as “without effect” and the “activity of alkaline phosphatase produced from cartilage” value [5] is given as “increased”.

With “IGF-1: growth factor that is beneficial for normal cartilage function and rehabilitation” the FGFR3 expression ([7]; confluent HMSC, 6 days) was “decreased”, the “chondrocyte maturation and cartilage matrix production (Alcian Blue staining)” value ([7]; confluent HMSC, 6 days) was “accelerates” and the “expression of collagen type II” value ([7]; confluent HMSC, 6 days) was “increased”.

For `CC(C=NNC(=N)N)=NNC(=N)N` [MGBG, methylglyoxal bis(guanylhydrazone), reference compound], the fusion of macrophages [4] is given as “concomitant inhibition” and the “enhanced synthesis of proteins induced by 1α,25(OH)2D3” value [4] is given as “greatly diminished”.

In the case of `NCCCCN` [putrescine, 1,4-diaminobutane], the “effect … from collagen column” value [3] is given as “without effect”.
